According to ChEMBL document CHEMBL1156499, “Tripeptides of RS1 (RSC1A1) inhibit a monosaccharide-dependent exocytotic pathway of Na+-D-glucose cotransporter SGLT1 with high affinity” (J Biol Chem, 2007):
Blank lines part the entries; values can stand above or below the molecule they belong to. Activity calls are given as the source filed them. The rule behind the calls is not given here. Peptide text beside a SMILES is read from it.

Assays:
[1] = biological target: T1, Sodium/glucose cotransporter 1 (Homo sapiens) (UniProt P13866); test: Inhibition of human SGLT1 expressed in xenopus laevis oocyte assessed as inhibition of methyl-alpha-D-[14C]glucopyranoside uptake at 75 pmol after 1 hr relative to control; design: Activity: scale not given: the % may be the effect or the level left
T1 sequence (whole entry): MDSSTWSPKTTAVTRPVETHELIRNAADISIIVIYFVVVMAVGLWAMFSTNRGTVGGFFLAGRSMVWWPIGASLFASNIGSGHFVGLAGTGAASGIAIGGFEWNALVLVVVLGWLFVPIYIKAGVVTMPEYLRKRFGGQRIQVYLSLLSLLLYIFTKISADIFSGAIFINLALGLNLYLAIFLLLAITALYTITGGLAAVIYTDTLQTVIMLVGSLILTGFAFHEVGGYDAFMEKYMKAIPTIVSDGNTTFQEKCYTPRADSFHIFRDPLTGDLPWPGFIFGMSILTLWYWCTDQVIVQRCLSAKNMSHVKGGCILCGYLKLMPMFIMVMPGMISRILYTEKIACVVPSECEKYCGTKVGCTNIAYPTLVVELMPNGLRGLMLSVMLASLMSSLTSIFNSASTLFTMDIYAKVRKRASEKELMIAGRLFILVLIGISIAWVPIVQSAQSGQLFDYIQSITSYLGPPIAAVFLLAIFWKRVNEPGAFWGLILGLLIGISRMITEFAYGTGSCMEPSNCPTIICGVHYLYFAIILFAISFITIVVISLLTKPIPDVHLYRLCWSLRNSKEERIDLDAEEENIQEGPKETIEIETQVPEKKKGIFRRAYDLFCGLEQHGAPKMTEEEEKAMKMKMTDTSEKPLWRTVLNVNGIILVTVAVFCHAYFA

[2] = biological target: T1, Sodium/glucose cotransporter 1 (Homo sapiens); test: Reversal of inhibition of human SGLT1 expressed in xenopus laevis oocyte assessed as inhibition of methyl-alpha-D-[14C]glucopyranoside uptake at 75 pmol after 1 hr in presence of D-glucose relative to control
[3] = biological target: T1, Sodium/glucose cotransporter 1 (Homo sapiens); test: Reversal of inhibition of human SGLT1 expressed in xenopus laevis oocyte assessed as inhibition of methyl-alpha-D-[14C]glucopyranoside uptake at 75 pmol after 1 hr in presence of D-fructose relative to control
[4] = biological target: T1, Sodium/glucose cotransporter 1 (Homo sapiens); test: Reversal of inhibition of human SGLT1 expressed in xenopus laevis oocyte by measuring inhibition of methyl-alpha-D-[14C]glucopyranoside uptake after 1 hr assessed concentration required for 50% protective high affinity in presence of 2-deoxyglucose relative to control
[5] = biological target: T1, Sodium/glucose cotransporter 1 (Homo sapiens); test: Reversal of inhibition of human SGLT1 expressed in xenopus laevis oocyte by measuring inhibition of methyl-alpha-D-[14C]glucopyranoside uptake after 1 hr assessed concentration required for 50 % protective high affinity in presence of D-glucose relative to control
[6] = biological target: T1, Sodium/glucose cotransporter 1 (Homo sapiens); test: Reversal of inhibition of human SGLT1 expressed in xenopus laevis oocyte assessed as inhibition of methyl-alpha-D-[14C]glucopyranoside uptake at 75 pmol after 1 hr in presence of 2-deoxyglucose relative to control
[7] = biological target: T1, Sodium/glucose cotransporter 1 (Homo sapiens); test: Reversal of inhibition of human SGLT1 expressed in xenopus laevis oocyte assessed as inhibition of methyl-alpha-D-[14C]glucopyranoside uptake at 75 pmol after 1 hr in presence of methyl-alpha-D-glucopyranoside relative to control
[8] = biological target: T2, Solute carrier family 15 member 1 (Homo sapiens) (UniProt P46059); test: Activity of human PepT1 expressed in xenopus laevis oocyte assessed as induction of inward current at 5 mM
T2 sequence (whole entry): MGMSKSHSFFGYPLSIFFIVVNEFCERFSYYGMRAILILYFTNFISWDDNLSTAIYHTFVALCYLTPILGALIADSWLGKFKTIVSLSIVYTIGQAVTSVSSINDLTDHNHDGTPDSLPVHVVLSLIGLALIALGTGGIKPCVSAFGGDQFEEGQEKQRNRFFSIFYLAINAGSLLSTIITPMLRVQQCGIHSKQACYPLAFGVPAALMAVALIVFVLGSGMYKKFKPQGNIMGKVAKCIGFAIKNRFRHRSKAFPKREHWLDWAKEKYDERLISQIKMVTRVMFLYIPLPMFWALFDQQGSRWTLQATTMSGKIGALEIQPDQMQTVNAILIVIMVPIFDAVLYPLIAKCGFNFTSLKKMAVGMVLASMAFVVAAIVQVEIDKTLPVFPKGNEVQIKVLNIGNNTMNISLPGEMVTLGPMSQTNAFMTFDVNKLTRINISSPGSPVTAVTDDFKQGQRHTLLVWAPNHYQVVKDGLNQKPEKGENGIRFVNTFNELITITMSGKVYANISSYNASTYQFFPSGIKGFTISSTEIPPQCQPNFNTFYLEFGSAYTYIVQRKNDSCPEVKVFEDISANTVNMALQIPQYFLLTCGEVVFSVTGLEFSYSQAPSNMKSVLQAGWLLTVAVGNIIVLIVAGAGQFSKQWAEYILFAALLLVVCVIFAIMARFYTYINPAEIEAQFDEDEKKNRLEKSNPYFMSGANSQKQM

[9] = test system: Small intestine; test: Decrease of D-glucose absorption in perfused rat small intestine at 15 mM relative to control; format: functional; design: scale not given: the % may be the effect or the level left
[10] = biological target: T1, Sodium/glucose cotransporter 1 (Homo sapiens); test: Reversal of inhibition of human SGLT1 expressed in xenopus laevis oocyte by measuring inhibition of methyl-alpha-D-[14C]glucopyranoside uptake after 1 hr assessed concentration required for 50% protective high affinity in presence of methyl-alpha-D-glucopyranoside relative to control
[11] = substrate: NC(=O)CC[C@H](N)C(=O)N[C@@H](CO)C(=O)N1CCC[C@H]1C(=O)O; test: Activity of human PepT1 expressed in xenopus laevis oocyte assessed as induction of inward current

Activity [1]: 44%
Molecule: CC(=O)N1CCC[C@H]1C(=O)N[C@@H](CO)C(=O)N[C@@H](CCC(N)=O)C(=O)O (Ac-Pro-Ser-Gln-OH)

Activity [1]: Active
Molecule: CC(=O)N1CCC[C@H]1C(=O)N[C@@H](CC(C)C)C(=O)N[C@@H](CCC(N)=O)C(=O)O (Ac-Pro-Leu-Gln-OH)

Activity [2]: Active
Activity [3]: Active
Activity [4]: 11.9 µM
Activity [5]: 30 µM
Activity [6]: Active
Activity [7]: Active
Activity [8]: Active
Activity [10]: 53 µM
Activity [1]: Active
Molecule: NC(=O)CC[C@H](N)C(=O)N[C@@H](CO)C(=O)N1CCC[C@H]1C(=O)O (H-Gln-Ser-Pro-OH)
Activity [9]: 30%

Activity [1]: Active
Molecule: CC(=O)N1CCC[C@H]1C(=O)NCC(=O)N[C@@H](CCC(N)=O)C(=O)O (Ac-Pro-Gly-Gln-OH)

Activity [8]: Active
Molecule: NCC(=O)N[C@@H](CCC(N)=O)C(=O)O (H-Gly-Gln-OH)

Activity [2]: Active
Activity [3]: Active
Activity [4]: 11.9 µM
Activity [6]: Active
Activity [7]: Active
Activity [10]: 53 µM
Activity [1]: Active
Molecule: NC(=O)CC[C@H](N)C(=O)N[C@@H](CS)C(=O)N1CCC[C@H]1C(=O)O (H-Gln-Cys-Pro-OH)

Activity [1]: Active
Molecule: CC(=O)N1CCC[C@H]1C(=O)N1CCC[C@H]1C(=O)N[C@@H](CCC(N)=O)C(=O)O (Ac-Pro-Pro-Gln-OH)

inhibition [1]: 55%
Molecule: Ac-SVQPCQENQ-OH

Activity [1]: Active
Molecule: CC(=O)N[C@@H](CCC(N)=O)C(=O)N[C@@H](CCC(=O)O)C(=O)N1CCC[C@H]1C(=O)O (Ac-Gln-Glu-Pro-OH)

Activity [1]: Active
Molecule: CC(=O)N1CCC[C@H]1C(=O)N[C@H](C(=O)N[C@@H](CCC(N)=O)C(=O)O)[C@@H](C)O (Ac-Pro-Thr-Gln-OH)

Activity [8]: Active
Activity [1]: inactive
Molecule: CC(=O)N[C@@H](CCC(N)=O)C(=O)N[C@@H](CS)C(=O)N1CCC[C@H]1C(=O)O (Ac-Gln-Cys-Pro-OH)

B1: Solute carrier family 15 member 1 (Homo sapiens), P46059 (protein)
chain: MGMSKSHSFFGYPLSIFFIVVNEFCERFSYYGMRAILILYFTNFISWDDNLSTAIYHTFVALCYLTPILGALIADSWLGKFKTIVSLSIVYTIGQAVTSVSSINDLTDHNHDGTPDSLPVHVVLSLIGLALIALGTGGIKPCVSAFGGDQFEEGQEKQRNRFFSIFYLAINAGSLLSTIITPMLRVQQCGIHSKQACYPLAFGVPAALMAVALIVFVLGSGMYKKFKPQGNIMGKVAKCIGFAIKNRFRHRSKAFPKREHWLDWAKEKYDERLISQIKMVTRVMFLYIPLPMFWALFDQQGSRWTLQATTMSGKIGALEIQPDQMQTVNAILIVIMVPIFDAVLYPLIAKCGFNFTSLKKMAVGMVLASMAFVVAAIVQVEIDKTLPVFPKGNEVQIKVLNIGNNTMNISLPGEMVTLGPMSQTNAFMTFDVNKLTRINISSPGSPVTAVTDDFKQGQRHTLLVWAPNHYQVVKDGLNQKPEKGENGIRFVNTFNELITITMSGKVYANISSYNASTYQFFPSGIKGFTISSTEIPPQCQPNFNTFYLEFGSAYTYIVQRKNDSCPEVKVFEDISANTVNMALQIPQYFLLTCGEVVFSVTGLEFSYSQAPSNMKSVLQAGWLLTVAVGNIIVLIVAGAGQFSKQWAEYILFAALLLVVCVIFAIMARFYTYINPAEIEAQFDEDEKKNRLEKSNPYFMSGANSQKQM
Km [11]: 4.2 mM
